According to PubChem BioAssay AID248 (DTP/NCI, 2004):
Toxic doses and inconclusive results are not listed.

System: L1210 leukemia ip in BDF1 mice, survival T/C
Assay: NCI In Vivo Anticancer Drug Screen. Data for tumor model L1210 Leukemia (intraperitoneal) in B6D2F1 (BDF1) mice
Settings: higher = longer survival
Outline: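 Transplantable tumor model; survival measured in treated vs vehicle control mice. Value = treated/control.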

[1] = endpoint: mean survival time, dose: 100.0 mg/kg/injection, schedule: Q01DX009 (ip), vehicle: Klucel (hydroxypropylcellulose) (HPC)
[2] = endpoint: mean survival time, dose: 200.0 mg/kg/injection, schedule: Q01DX009 (ip), vehicle: Klucel (hydroxypropylcellulose) (HPC)
[3] = endpoint: mean survival time, dose: 100.0 mg/kg/injection, schedule: Q01DX001 (ip), vehicle: saline
[4] = endpoint: mean survival time, dose: 100.0 mg/kg/injection, schedule: Q04DX003 (ip), vehicle: saline with Tween-80
[5] = endpoint: mean survival time, dose: 200.0 mg/kg/injection, schedule: Q04DX003 (ip), vehicle: saline with Tween-80
[6] = endpoint: mean survival time, dose: 400.0 mg/kg/injection, schedule: Q04DX003 (ip), vehicle: saline with Tween-80
[7] = endpoint: mean survival time, dose: 100.0 mg/kg/injection, schedule: Q04DX003 (ip), vehicle: Klucel (hydroxypropylcellulose) (HPC)
[8] = endpoint: mean survival time, dose: 200.0 mg/kg/injection, schedule: Q04DX003 (ip), vehicle: Klucel (hydroxypropylcellulose) (HPC)
[9] = endpoint: mean survival time, dose: 400.0 mg/kg/injection, schedule: Q04DX003 (ip), vehicle: Klucel (hydroxypropylcellulose) (HPC)

For `C(=N\Nc1nc2ccccc2s1)/c1cccnc1`, the T/C [1] was 98 % of control, the T/C [2] was 98 % of control and the T/C (endpoint: mean survival time, dose: 400.0 mg/kg/injection, schedule: Q01DX009 (ip), vehicle: Klucel (hydroxypropylcellulose) (HPC)) was 101 % of control.

With `CC(=O)Oc1ccc(C2CC(=O)N(CCN(C)C)C2=O)cc1` (configuration not stated) the T/C [3] was 107 % of control, the T/C (endpoint: mean survival time, dose: 200.0 mg/kg/injection, schedule: Q01DX001 (ip), vehicle: saline) was 90 % of control and the T/C (endpoint: mean survival time, dose: 400.0 mg/kg/injection, schedule: Q01DX001 (ip), vehicle: saline) was 100 % of control.

`COc1ccc(OCC(=O)O)cc1` was tested, and the T/C [4] was 102 % of control, the T/C [5] was 107 % of control and the T/C [6] was 107 % of control.

With `COc1cc(N(C)C)c(OC)cc1C=O` the T/C [1] was 103 % of control, the T/C [7] was 97 % of control and the T/C [2] was 105 % of control. The T/C [8] was 95 % of control and the T/C [9] was 95 % of control.

For `Cc1ccc(C(C)C)c(OCC(O)Cn2ccnc2)c1` (configuration not stated), the T/C (endpoint: mean survival time, dose: 20.0 mg/kg/injection, schedule: Q01DX001 (ip), vehicle: saline) was 103 % of control, the T/C (endpoint: mean survival time, dose: 40.0 mg/kg/injection, schedule: Q01DX001 (ip), vehicle: saline) was 101 % of control and the T/C (endpoint: mean survival time, dose: 80.0 mg/kg/injection, schedule: Q01DX001 (ip), vehicle: saline) was 88 % of control. The T/C [3] was 94 % of control.

For `CCC(C)C(NC(=O)C1CSC(C)(C)N1C=O)C(=O)OC1CCCCC1` (configuration not stated), the T/C [4] was 98 % of control, the T/C [5] was 97 % of control and the T/C [6] was 101 % of control.

With `Cc1cc(NCCCCCCCNc2cc(C)nc3cc(N)ccc23)c2ccc(N)cc2n1` the T/C (endpoint: median survival time, dose: 1.56 mg/kg/injection, schedule: Q01DX009 (ip), vehicle: water) was 123 % of control, the T/C (endpoint: median survival time, dose: 6.25 mg/kg/injection, schedule: Q01DX009 (ip), vehicle: water) was 154 % of control and the T/C (endpoint: median survival time, dose: 12.5 mg/kg/injection, schedule: Q01DX009 (ip), vehicle: water) was 194 % of control. For the same molecule, the T/C (endpoint: median survival time, dose: 25.0 mg/kg/injection, schedule: Q01DX009 (ip), vehicle: water) was 116 % of control.

For `COC(=O)[C@H]1[C@H]2C[C@@H]3c4[nH]c5ccccc5c4CCN3C[C@H]2C[C@@H](OC(=O)c2cc(OC)c(OC)c(OC)c2)[C@@H]1OC`, the T/C (endpoint: mean survival time, dose: 0.23 mg/kg/injection, schedule: Q01DX009 (ip), vehicle: Klucel (hydroxypropylcellulose) (HPC)) was 93 % of control, the T/C (endpoint: mean survival time, dose: 0.23 mg/kg/injection, schedule: Q04DX003 (ip), vehicle: saline) was 95 % of control and the T/C (endpoint: mean survival time, dose: 0.46 mg/kg/injection, schedule: Q01DX009 (ip), vehicle: Klucel (hydroxypropylcellulose) (HPC)) was 90 % of control. The T/C (endpoint: mean survival time, dose: 0.46 mg/kg/injection, schedule: Q04DX003 (ip), vehicle: saline) was 104 % of control, the T/C (endpoint: mean survival time, dose: 0.93 mg/kg/injection, schedule: Q01DX009 (ip), vehicle: Klucel (hydroxypropylcellulose) (HPC)) was 101 % of control and the T/C (endpoint: mean survival time, dose: 0.93 mg/kg/injection, schedule: Q04DX003 (ip), vehicle: saline) was 112 % of control. For the same molecule, the T/C (endpoint: mean survival time, dose: 1.87 mg/kg/injection, schedule: Q01DX009 (ip), vehicle: Klucel (hydroxypropylcellulose) (HPC)) was 88 % of control, the T/C (endpoint: mean survival time, dose: 1.87 mg/kg/injection, schedule: Q04DX003 (ip), vehicle: saline) was 98 % of control and the T/C (endpoint: mean survival time, dose: 3.75 mg/kg/injection, schedule: Q04DX003 (ip), vehicle: saline) was 101 % of control.

`CC(C)CNC(=O)CCc1ccc(N(CCCl)CCCl)cc1` was tested, and the T/C (endpoint: mean survival time, dose: 50.0 mg/kg/injection, schedule: Q01DX009 (ip), vehicle: Klucel (hydroxypropylcellulose) (HPC)) was 109 % of control, the T/C [1] was 117 % of control and the T/C [7] was 120 % of control. The T/C [8] was 102 % of control and the T/C [9] was 112 % of control.

With `O=C(Nc1ccc(F)c([N+](=O)[O-])c1)Nc1ccccc1C(F)(F)F` the T/C (endpoint: mean survival time, dose: 100.0 mg/kg/injection, schedule: Q01DX009 (ip), vehicle: saline with Tween-80) was 90 % of control, the T/C (endpoint: mean survival time, dose: 200.0 mg/kg/injection, schedule: Q01DX009 (ip), vehicle: saline with Tween-80) was 96 % of control and the T/C (endpoint: mean survival time, dose: 400.0 mg/kg/injection, schedule: Q01DX009 (ip), vehicle: saline with Tween-80) was 97 % of control.
